Tests used:
Brugia pahangi = experiment: Antifilarial activity against Brugia pahangi in jirds was determined after subcutaneous administration of 100 mg/kg/day.; type: functional, organism-based
Litomosoides carinii [1] = experiment: Antifilarial activity against Litomosoides carinii adults; type: functional; parameters: concentration or dose not given beside the values
Litomosoides carinii [2] = experiment: Antifilarial activity against circulating Litomosoides carinii microfilaria; type: functional; parameters: concentration or dose not given beside the values

| Structure (SMILES) | Reduction (Brugia pahangi) | Reduction (Litomosoides carinii [1]) | Reduction (Litomosoides carinii [2]) |
| --- | --- | --- | --- |
| CCN(CC)Cc1cc(Nc2cc(-c3ccccc3)nc(Nc3nc4cc(Cl)c(Cl)cc4[nH]3)n2)ccc1O | Not significant | <60% | <90% |
| CN1CCN(Cc2cc(Nc3cc(C(F)(F)F)nc(Nc4nc5cc(C(=O)c6ccccc6)ccc5[nH]4)n3)ccc2O)CC1 | Not significant | <60% | <90% |
| CCN(CC)Cc1cc(Nc2cc(C(F)(F)F)nc(Nc3nc4cc(C(=O)c5ccccc5)ccc4[nH]3)n2)ccc1O | Not significant | <60% | <90% |
| Cc1cc(Nc2ccc(O)c(CN3CCCC3)c2)nc(Nc2nc3cc(Cl)c(Cl)cc3[nH]2)n1 | Not significant | <60% | <90% |
| CCN(CC)Cc1cc(Nc2cc(C(F)(F)F)nc(Nc3nc4cc(Cl)c(Cl)cc4[nH]3)n2)ccc1OC | Not significant | <60% | <90% |
| CNCc1cc(Nc2cc(C)nc(Nc3nc4cc(Cl)c(Cl)cc4[nH]3)n2)ccc1O | Not significant | <60% | <90% |
| CCNCc1cc(Nc2cc(C(F)(F)F)nc(Nc3nc4cc(C(=O)c5ccccc5)ccc4[nH]3)n2)ccc1OC | Not significant | <60% | <90% |
| CCN(CC)Cc1cc(Nc2cc(C(F)(F)F)nc(Nc3nc4cc(Cl)c(Cl)cc4[nH]3)n2)ccc1O | Not significant | <60% | <90% |
| CCNCc1cc(Nc2cc(C)nc(Nc3nc4cc(Cl)c(Cl)cc4[nH]3)n2)ccc1OC | Not significant | <60% | <90% |
| CN1CCN(Cc2cc(Nc3nc(Nc4nc5cc(Cl)c(Cl)cc5[nH]4)nc4c3CCCC4)ccc2O)CC1 | Not significant | <60% | <90% |
| CCOc1ccc(Nc2nc(Nc3nc4cc(Cl)c(Cl)cc4[nH]3)nc3c2CCCC3)cc1CN(CC)CC | Not significant | <60% | <90% |
| CCN(CC)Cc1cc(Nc2nc(Nc3nc4cc(Cl)c(Cl)cc4[nH]3)nc3c2CCCC3)ccc1O | Not significant | <60% | <90% |
| CCN(CC)Cc1cc(Nc2cc(C)nc(Nc3nc4cc(Cl)c(Cl)cc4[nH]3)n2)ccc1OC | Not significant | <60% | <90% |
| CCN(CC)Cc1cc(Nc2cc(C(F)(F)F)nc(Nc3nc4cc(Cl)c(Cl)cc4[nH]3)n2)cc(-c2ccccc2)c1O | Not significant | <60% | <90% |
| CCOC(=O)N1CCN(Cc2cc(Nc3cc(C(F)(F)F)nc(Nc4nc5cc(Cl)c(Cl)cc5[nH]4)n3)cc(-c3ccccc3)c2O)CC1 | Not significant | <60% | <90% |
| CCNCc1cc(Nc2nc(Nc3nc4cc(Cl)c(Cl)cc4[nH]3)nc3c2CCCC3)ccc1OC | Not significant | <60% | <90% |
| CCN(CC)Cc1cc(Nc2cc(C)nc(Nc3nc4cc(Cl)c(Cl)cc4[nH]3)n2)ccc1O | Not significant | <60% | <90% |
| CCN(CC)Cc1cc(Nc2cc(C(F)(F)F)nc(Nc3nc4cc(C(=O)c5ccccc5)ccc4[nH]3)n2)ccc1OC | Not significant | <60% | <90% |
| Cc1cc(Nc2ccc(O)c(CN3CCN(C)CC3)c2)nc(Nc2nc3cc(Cl)c(Cl)cc3[nH]2)n1 | Not significant | <60% | <90% |
| CCOc1ccc(Nc2cc(C)nc(Nc3nc4cc(Cl)c(Cl)cc4[nH]3)n2)cc1CN(CC)CC | Not significant | <60% | <90% |

Reference: ChEMBL document CHEMBL1122287, “N2-1H-benzimidazol-2-yl-N4-phenyl-2,4-pyrimidinediamines and N2-1H-benzimidazol-2-yl-5,6,7,8-tetrahydro-N4-phenyl-2,4-quinazolinediamines as potential antifilarial agents” (1983)
